According to article PMC7248782, “Synergistic Anti Leukemia Effect of a Novel Hsp90 and a Pan Cyclin Dependent Kinase Inhibitors” (Molecules, 2020):

Target: T1, Hsp90α (Homo sapiens, UniProt P07900)
T1 construct: gene HSP90AA1; recombinant human Hsp90α (SPP-776)
Experiment: SPR (Biacore […], immobilized Hsp90α)
Assay type: binding

Kd: 51 ± 2.9 nM
SMILES: NS(=O)(=O)c1ccc(CCn2c(=S)[nH]c3ccccc3c2=O)cc1 [compound 1, 4-(2-(4-Oxo-2-thioxo-1,4-dihydroquinazolin-3(2H)-yl)ethyl)benzene sulfonamide]
